Data as given in US12157746B2, “Tetrahydro-1H-pyrazino[2,1-a]isoindolylquinoline compounds for the treatment of autoimmune disease” (F. HOFFMANN-LA ROCHE AG, priority 2018, dated 2024).

Target: T1, human TLR9 (Homo sapiens, UniProt Q9NR96)
T1 sequence (Q9NR96 26-1032): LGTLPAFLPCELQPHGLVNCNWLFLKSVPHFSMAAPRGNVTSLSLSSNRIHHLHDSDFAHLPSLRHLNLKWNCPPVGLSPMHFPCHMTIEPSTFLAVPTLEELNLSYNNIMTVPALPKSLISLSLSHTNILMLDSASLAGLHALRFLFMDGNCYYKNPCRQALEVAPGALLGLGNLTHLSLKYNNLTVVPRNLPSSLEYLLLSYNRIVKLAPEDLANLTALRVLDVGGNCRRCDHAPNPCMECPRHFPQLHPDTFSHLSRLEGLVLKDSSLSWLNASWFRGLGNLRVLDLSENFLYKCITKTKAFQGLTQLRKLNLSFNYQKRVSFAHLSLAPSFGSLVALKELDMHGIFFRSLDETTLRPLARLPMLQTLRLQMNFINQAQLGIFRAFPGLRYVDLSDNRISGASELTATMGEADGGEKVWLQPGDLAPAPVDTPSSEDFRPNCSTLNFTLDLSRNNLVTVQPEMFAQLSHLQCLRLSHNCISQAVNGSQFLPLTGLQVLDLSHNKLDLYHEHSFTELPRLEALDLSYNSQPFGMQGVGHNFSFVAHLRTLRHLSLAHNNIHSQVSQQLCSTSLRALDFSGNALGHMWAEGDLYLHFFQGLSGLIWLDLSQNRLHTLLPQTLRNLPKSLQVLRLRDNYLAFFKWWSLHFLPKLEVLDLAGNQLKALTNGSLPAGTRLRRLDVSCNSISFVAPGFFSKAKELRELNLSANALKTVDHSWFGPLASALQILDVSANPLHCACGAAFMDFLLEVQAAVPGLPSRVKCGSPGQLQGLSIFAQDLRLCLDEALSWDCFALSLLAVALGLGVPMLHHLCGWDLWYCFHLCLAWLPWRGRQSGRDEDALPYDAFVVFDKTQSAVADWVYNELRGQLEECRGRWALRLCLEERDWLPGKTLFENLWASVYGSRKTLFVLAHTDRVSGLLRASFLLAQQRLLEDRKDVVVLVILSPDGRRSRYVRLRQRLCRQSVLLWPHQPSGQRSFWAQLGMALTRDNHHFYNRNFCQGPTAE
Experiment: HEK293-Blue-hTLR-9 cells assay
Format: cell-based
Settings: HEK293-Blue-hTLR9 cells, ODN2006 stimulation, 20 hrs, SEAP reporter; read-out: HEK/hTLR9 IC50
Source text: HEK293-Blue-hTLR-9 Cells Assay:
A stable HEK293-Blue-hTLR-9 cell line was purchased from InvivoGen (Cat. #: hkb-htlr9, San Diego. California USA). These cells were originally designed for studying the stimulation of human TLR9 by monitoring the activation of NF-κB. A SEAP (secreted embryonic alkaline phosphatase) reporter gene was placed under the control of the IFN-β minimal promoter fused to five NF-κB and AP-1-binding sites. The SEAP was induced by activating NF-κB and AP-1 via stimulating HEK-Blue hTLR9 cells with TLR9 ligands. Therefore the reporter expression was declined by TLR9 antagonist under the stimulation of a ligand, such as ODN2006 (Cat. #: tlrl-2006-1, Invivogen, San Diego, California USA), for incubation of 20 hrs. The cell culture supernatant SEAP reporter activity was determined using QUANTI-Blue™ kit (Cat. #: rep-qb1, Invivogen, San Diego, California, USA) at a wavelength of 640 nm, a detection medium that turns purple or blue in the presence of alkaline phosphatase.
HEK293-Blue-hTLR9 cells were incubated at a density of 250.000-450,000 cells/mL in a volume of 170 μL in a 96-well plate in Dulbecco's Modified Eagle's medium (DMEM) containing 4.5 g/L glucose, 50 U/mL penicillin, […], […], 2 mM L-glutamine, 10% (v/v) heat-inactivated fetal bovine serum with addition of 20 μL test compound 1n a serial dilution in the presence of final DMSO at 1% and 10 μL of 20 uM ODN2006 in above DMEM, perform incubation under 37° C. in a CO2 incubator for 20 hrs. Then 20 μL of the supernatant from each well was incubated with 180 μL Quanti-blue substrate solution at 37° C. for 2 h and the absorbance was read at 620˜655 nm using a spectrophotometer. The signaling pathway that TLR9 activation leads to downstream NF-κB activation has been widely accepted, and therefore similar reporter assay was modified for evaluating TLR9 antagonist.

Row | SMILES | IC50 [nM]
1 | [2H]c1ccc2c(N3C[C@@H](C)N4Cc5cc(N[C@H]6CNC[C@H]6F)ccc5[C@H]4C3)ccc(C#N)c2n1 [Example 91, 5-[(4R,10bS)-8-[[(3S,4R)-4-fluoropyrrolidin-3-yl]amino]-4-methyl-3,4,6,10b-tetrahydro-1H-pyrazino[2,1-a]isoindol-2-yl]-2-deuterio-quinoline-8-carbonitrile] | 70.5
2 | CO[C@@H]1CN(c2ccc3c(c2)CN2[C@H](C)CN(c4ccc(C#N)n5nccc45)C[C@H]32)C[C@H]1N [Example 94, 4-[(4R,10bS)-8-[(3R,4R)-3-amino-4-methoxy-pyrrolidin-1-yl]-4-methyl-3,4,6,10b-tetrahydro-1H-pyrazino[2,1-a]isoindol-2-yl]pyrazolo[1,5-a]pyridine-7-carbonitrile] | 149
3 | CO[C@H]1CN(c2ccc3c(c2)CN2[C@H](C)CN(c4ccc(C#N)n5nccc45)C[C@H]32)C[C@@H]1N [Example 95, 4-[(4R,10bS)-8-[(3S,4S)-3-amino-4-methoxy-pyrrolidin-1-yl]-4-methyl-3,4,6,10b-tetrahydro-1H-pyrazino[2,1-a]isoindol-2-yl]pyrazolo[1,5-a]pyridine-7-carbonitrile] | 215
4 | C[C@@H]1CN(c2ccc3c(c2)CN2[C@H](C)CN(c4ccc(C#N)n5nccc45)C[C@H]32)CCN1 [Example 97, 4-[(4R,10bS)-4-methyl-8-[(3R)-3-methylpiperazin-1-yl]-3,4,6,10b-tetrahydro-1H-pyrazino[2,1-a]isoindol-2-yl]pyrazolo[1,5-a]pyridine-7-carbonitrile] | 161
5 | C[C@@H]1CN(c2ccc(C#N)n3nccc23)C[C@@H]2c3ccc(N[C@H]4CNC[C@H]4F)cc3CN12 [Example 98, 4-[(4R,10bS)-8-[[(3S,4R)-4-fluoropyrrolidin-3-yl]amino]-4-methyl-3,4,6,10b-tetrahydro-1H-pyrazino[2,1-a]isoindol-2-yl]pyrazolo[1,5-a]pyridine-7-carbonitrile] | 197
6 | C[C@@H]1CN(c2ccc(C#N)n3nccc23)C[C@@H]2c3ccc(N4CCOC[C@H](N)C4)cc3CN12 [Example 101, 4-[(4R,10bS)-8-[(6R)-6-amino-1,4-oxazepan-4-yl]-4-methyl-3,4,6,10b-tetrahydro-1H-pyrazino[2,1-a]isoindol-2-yl]pyrazolo[1,5-a]pyridine-7-carbonitrile] | 165
7 | C[C@@H]1CN(c2ccc(C#N)n3nccc23)C[C@@H]2c3ccc(N4CC[C@@](C)(N)C4)cc3CN12 [Example 103, 4-[(4R,10bS)-8-[(3R)-3-amino-3-methyl-pyrrolidin-1-yl]-4-methyl-3,4,6,10b-tetrahydro-1H-pyrazino[2,1-a]isoindol-2-yl]pyrazolo[1,5-a]pyridine-7-carbonitrile] | 142
8 | CO[C@@H]1CN(c2ccc3c(c2)CN2[C@H](C)CN(c4ccc(C#N)n5nccc45)C[C@H]32)CC[C@@H]1N [Example 105, 4-[(4R,10bS)-8-[(3R,4S)-4-amino-3-methoxy-1-piperidyl]-4-methyl-3,4,6,10b-tetrahydro-1H-pyrazino[2,1-a]isoindol-2-yl]pyrazolo[1,5-a]pyridine-7-carbonitrile] | 163
9 | CO[C@H]1CCN(c2ccc3c(c2)CN2[C@H](C)CN(c4ccc(C#N)n5nccc45)C[C@H]32)C[C@H]1N [Example 106, 4-[(4R,10bS)-8-[(3R,4S)-3-amino-4-methoxy-1-piperidyl]-4-methyl-3,4,6,10b-tetrahydro-1H-pyrazino[2,1-a]isoindol-2-yl]pyrazolo[1,5-a]pyridine-7-carbonitrile] | 135
10 | C[C@@H]1CN(c2ccc(C#N)n3nccc23)C[C@@H]2c3ccc(N4CC5CNCC(C4)O5)cc3CN12 [Example 107, 4-[(4R,10bS)-4-methyl-8-(9-oxa-3,7-diazabicyclo[3.3.1]nonan-3-yl)-3,4,6,10b-tetrahydro-1H-pyrazino[2,1-a]isoindol-2-yl]pyrazolo[1,5-a]pyridine-7-carbonitrile] | 67.9
11 | C[C@@H]1CN(c2ccc(C#N)n3nccc23)C[C@@H]2c3ccc(N4C[C@@H](N)[C@](C)(O)C4)cc3CN12 [Example 108, 4-[(4R,10bS)-8-[(3R,4R)-4-amino-3-hydroxy-3-methyl-pyrrolidin-1-yl]-4-methyl-3,4,6,10b-tetrahydro-1H-pyrazino[2,1-a]isoindol-2-yl]pyrazolo[1,5-a]pyridine-7-carbonitrile] | 126
12 | C[C@@H]1CN(c2ccc(C#N)n3nccc23)C[C@@H]2c3ccc(N4C[C@H](N)[C@@](C)(O)C4)cc3CN12 [Example 109, 4-[(4R,10bS)-8-[(3S,4S)-4-amino-3-hydroxy-3-methyl-pyrrolidin-1-yl]-4-methyl-3,4,6,10b-tetrahydro-1H-pyrazino[2,1-a]isoindol-2-yl]pyrazolo[1,5-a]pyridine-7-carbonitrile] | 160

Results, then the compound that gave them:

Row | IC50 [nM] | SMILES
13 | 186 | C[C@@H]1CN(c2ccc(C#N)c3ncccc23)C[C@@H]2c3ccc(N4C[C@H](N)[C@@H](F)C4)cc3CN12 [Example 49, 5-[(4R,10bS)-8-[(3S,4S)-3-amino-4-fluoro-pyrrolidin-1-yl]-4-methyl-3,4,6,10b-tetrahydro-1H-pyrazino[2,1-a]isoindol-2-yl]quinoline-8-carbonitrile]
14 | 139 | C[C@@H]1CN(c2ccc(C#N)c3ncccc23)C[C@@H]2c3ccc(N4CCC(C)(N)CC4)cc3CN12 [Example 51, 5-[(4R,10bS)-8-(4-amino-4-methyl-1-piperidyl)-4-methyl-3,4,6,10b-tetrahydro-1H-pyrazino[2,1-a]isoindol-2-yl]quinoline-8-carbonitrile]
15 | 68 | C[C@@H]1CN(c2ccc(C#N)c3ncccc23)C[C@@H]2c3ccc(N4CCNC[C@@H](O)C4)cc3CN12 [Example 53B, 5-[(4R,10bS)-8-[(6R)-6-hydroxy-1,4-diazepan-1-yl]-4-methyl-3,4,6,10b-tetrahydro-1H-pyrazino[2,1-a]isoindol-2-yl]quinoline-8-carbonitrile]
16 | 118 | C[C@@H]1CN(c2ccc(C#N)c3ncccc23)C[C@@H]2c3ccc(N4CCNCC(C)(O)C4)cc3CN12 (stereo partly drawn) [Example 55, 5-[(4R,10S)-8-(6-hydroxy-6-methyl-1,4-diazepan-1-yl)-4-methyl-3,4,6,10b-tetrahydro-1H-pyrazino[2,1-a]isoindol-2-yl]quinoline-8-carbonitrile]
17 | 111 | C[C@@H]1CN(c2ccc(C#N)c3ncccc23)C[C@@H]2c3ccc(N4CCNC[C@](C)(O)C4)cc3CN12 [Example 55A, 5-[(4R,10bS)-8-[(6S)-6-hydroxy-6-methyl-1,4-diazepan-1-yl]-4-methyl-3,4,6,10b-tetrahydro-1H-pyrazino[2,1-a]isoindol-2-yl]quinoline-8-carbonitrile]
18 | 156 | C[C@@H]1CN(c2ccc(C#N)c3ncccc23)C[C@@H]2c3ccc(N4CCNC[C@@](C)(O)C4)cc3CN12 [Example 55B, 5-[(4R,10bS)-8-[(6R)-6-hydroxy-6-methyl-1,4-diazepan-1-yl]-4-methyl-3,4,6,10b-tetrahydro-1H-pyrazino[2,1-a]isoindol-2-yl]quinoline-8-carbonitrile]
19 | 103 | C[C@@H]1CN(c2ccc(C#N)c3ncccc23)C[C@@H]2c3ccc(NC4CNCCOC4)cc3CN12 (stereo partly drawn) [Example 56, 5-[(4R,10bS)-4-methyl-8-(1,4-oxazepan-6-ylamino)-3,4,6,10b-tetrahydro-1H-pyrazino[2,1-a]isoindol-2-yl]quinoline-8-carbonitrile]
